Laboratory results taken from US7390817B2, “Combinations of a vanilloid antagonist and an NSAID for the treatment of pain” (Glaxo Group Limited, priority 2002, dated 2008).

Test system: FCA-induced mechanical hypersensitivity
Experiment: Guinea Pig FCA Model (mechanical hyperalgesia, paw pressure)
Type: in vivo
Conditions: male Dunkin-Hartley guinea-pigs, FCA intraplantar left paw, oral dosing 24 hours later, reading 1 hour after drug administration; Compound A 1.5 mg/kg, Compound B 1 mg/kg
Procedure: 100 μl of 1 mg/ml FCA was injected intraplantar into the left paw of 6 groups of 6 male Dunkin-Hartley guinea-pigs (average weight 330 g) in order to induce inflammation and evoke a mechanical hypersensitivity (Ref. Stein, C., Millan, M. J., and Herz, A., Unilateral inflammation of the hind paw in rats as a model of prolonged noxious stimulation: alterations in behaviour and nociceptive thresholds, Pharmacol. Biochem. Behav., 31 (1988) 445-451). 24 hours later 1.5 mg/kg rofecoxib, 1 mg/kg N-(2-Bromophenyl)-N′-[((R)-1-(5-trifluoromethyl-2-pyridyl)pyrrolidin-3-yl)]urea and a combination of both was administered orally with the vehicle being 1% methylcellulose, the dosing volume being 2 ml/kg and dosing straight into the stomach. The methylcellulose was added gradually to the compound into the pestle and mortar and ground together. The mixtures were then sonnicated for 20 minutes. Behavioural readouts of mechanical hyperalgesia were obtained before FCA adminsitration (naive reading), after FCA but before drug administration (predose reading) and 1 hour after drug administration. […] The readout used was paw withdrawal in response to paw pressure (Ref. Randall L O, Selitto J J. (1957) A method for measurement of analgesic activity on inflammed tissue. Arch Int. Pharmacodyn 61, 409419.) and the end point was paw withdrawal. […]

SMILES	% reversal of mechanical hypersensitivity
O=C(Nc1ccccc1Br)N[C@@H]1CCN(c2ccc(C(F)(F)F)cn2)C1 [Compound B, N-(2-Bromophenyl)-N′-[((R)-1-(5-trifluoromethyl-2-pyridyl)pyrrolidin-3-yl)]urea]	32.5%
CS(=O)(=O)c1ccc(C2=C(c3ccccc3)C(=O)OC2)cc1 [Compound A, rofecoxib]	30.6%
